{"source": "patent US11078197B2", "about": "“5-membered and bicyclic heterocyclic amides as inhibitors of rock” (BRISTOL-MYERS SQUIBB COMPANY, priority 2017, dated 2021)", "key": {"ROCK2": {"biological_target": "ROCK2 (Homo sapiens (Human), UniProt O75116)", "sequence (O75116 whole entry, species assumed)": "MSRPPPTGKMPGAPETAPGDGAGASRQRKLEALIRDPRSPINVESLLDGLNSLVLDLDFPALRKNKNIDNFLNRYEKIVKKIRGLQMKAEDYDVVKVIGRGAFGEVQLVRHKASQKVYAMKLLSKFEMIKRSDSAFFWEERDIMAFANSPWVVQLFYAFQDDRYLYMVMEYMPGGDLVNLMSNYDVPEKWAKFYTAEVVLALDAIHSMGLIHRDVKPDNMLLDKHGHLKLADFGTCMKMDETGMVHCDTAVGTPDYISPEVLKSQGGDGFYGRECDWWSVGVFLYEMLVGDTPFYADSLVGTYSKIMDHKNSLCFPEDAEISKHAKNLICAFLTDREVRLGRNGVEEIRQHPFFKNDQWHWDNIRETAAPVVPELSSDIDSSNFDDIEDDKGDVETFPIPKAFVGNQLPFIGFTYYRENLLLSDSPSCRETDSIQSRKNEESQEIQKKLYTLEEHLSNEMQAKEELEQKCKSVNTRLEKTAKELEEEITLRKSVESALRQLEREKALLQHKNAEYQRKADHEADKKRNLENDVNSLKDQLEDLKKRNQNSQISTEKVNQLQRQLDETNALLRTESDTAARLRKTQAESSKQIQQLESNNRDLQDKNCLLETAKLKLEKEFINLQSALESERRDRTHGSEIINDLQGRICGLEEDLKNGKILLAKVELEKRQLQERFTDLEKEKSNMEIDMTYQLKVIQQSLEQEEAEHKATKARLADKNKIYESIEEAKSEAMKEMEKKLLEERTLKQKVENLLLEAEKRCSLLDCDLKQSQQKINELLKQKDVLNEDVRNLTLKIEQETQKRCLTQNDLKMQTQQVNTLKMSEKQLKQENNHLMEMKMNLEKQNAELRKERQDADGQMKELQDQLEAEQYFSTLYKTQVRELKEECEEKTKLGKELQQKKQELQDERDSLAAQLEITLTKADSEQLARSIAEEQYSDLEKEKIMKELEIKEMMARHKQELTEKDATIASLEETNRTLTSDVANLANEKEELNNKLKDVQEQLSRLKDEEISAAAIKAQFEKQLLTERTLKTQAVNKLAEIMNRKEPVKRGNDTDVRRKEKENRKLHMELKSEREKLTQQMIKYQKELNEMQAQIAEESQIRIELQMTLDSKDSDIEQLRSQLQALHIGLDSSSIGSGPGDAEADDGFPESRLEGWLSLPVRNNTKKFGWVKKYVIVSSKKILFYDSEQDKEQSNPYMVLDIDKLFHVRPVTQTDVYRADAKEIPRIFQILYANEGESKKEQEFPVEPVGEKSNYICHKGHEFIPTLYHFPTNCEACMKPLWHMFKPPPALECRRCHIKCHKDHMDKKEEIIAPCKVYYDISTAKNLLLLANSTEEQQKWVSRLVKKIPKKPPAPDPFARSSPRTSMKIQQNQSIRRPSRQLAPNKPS", "assay": "ROCK2 assay (peptide phosphorylation, LABCHIP 3000 Reader)", "type": "biochemical", "conditions": "5 μM ATP, 1.5 μM peptide substrate, dose-response", "method": "After incubation, the reaction was terminated by the addition of EDTA and the phosphorylated and non-phosphorylated peptides separated using a LABCHIP®3000 Reader (Caliper Life Sciences). […] Compounds were tested in dose-response format, and the inhibition of kinase activity was calculated at each concentration of compound. […] Representative Examples were tested in the ROCK2 assay described above and found having ROCK2 inhibitory activity."}, "[1]": {"system": "spontaneously hypertensive rat, renal hypertensive rat and deoxycortisone acetate salt hypertensive rat models", "conditions": "cited from earlier work"}, "[2]": {"system": "neointimal formation in rats", "conditions": "cited from earlier work"}, "Dahl salt-sensitive rats": {"system": "Dahl salt-sensitive rats", "conditions": "congestive heart failure; cited from earlier work"}, "[3]": {"system": "porcine model of IL-1 beta-induced coronary stenosis", "conditions": "long term treatment; cited from earlier work"}, "rat stroke model": {"system": "rat stroke model", "conditions": "cited from earlier work"}}, "note": "Like-named read-outs stand apart in the source and are kept apart here."}
{"smiles": "Cn1ncc2cc(C(N)=O)c(O[C@H]3C[C@@]4(C[C@H](NC(=O)c5nn(CC(F)F)c6cc(OCC(C)(C)O)ccc56)C4)C3)nc21", "note": "(some centres unmarked) [Example 159, 1-(2,2-difluoroethyl)-6-(2-hydroxy-2-methylpropoxy)-N-[(4s)-6-({5-carbamoyl-1-methyl-1H-pyrazolo[3,4-b]pyridin-6-yl}oxy)spiro[3.3]heptan-2-yl]-1H-indazole-3-carboxamide]", "values": [{"measurement": "IC50", "setting": "ROCK2", "result": 1.1, "unit": "nM"}]}
{"smiles": "Cn1ncc2cc(C(N)=O)c(O[C@H]3C[C@@]4(C[C@H](NC(=O)c5nn(CC(F)F)c6cc(OCC(C)(C)F)ccc56)C4)C3)nc21", "note": "(some centres unmarked) [Example 160, 1-(2,2-difluoroethyl)-6-(2-fluoro-2-methylpropoxy)-N-[(4s)-6-({5-carbamoyl-1-methyl-1H-pyrazolo[3,4-b]pyridin-6-yl}oxy)spiro[3.3]heptan-2-yl]-1H-indazole-3-carboxamide]", "values": [{"measurement": "IC50", "setting": "ROCK2", "result": 1.6, "unit": "nM"}]}
{"smiles": "Cc1sc2cc(C(N)=O)c(O[C@H]3C[C@@]4(C[C@H](NC(=O)c5cnn(-c6ccc(F)cc6F)c5C)C4)C3)nc2c1C", "note": "(some centres unmarked) [Example 161, 1-(2,4-difluorophenyl)-5-methyl-N-[(4s)-6-({6-carbamoyl-2,3-dimethylthieno[3,2-b]pyridin-5-yl}oxy)spiro[3.3]heptan-2-yl]-1H-pyrazole-4-carboxamide]", "values": [{"measurement": "IC50", "setting": "ROCK2", "result": 223, "unit": "nM"}]}
{"smiles": "Cc1sc2cc(C(N)=O)c(O[C@H]3CC4(C[C@H](NC(=O)c5nnc(NCC(C)C)s5)C4)C3)nc2c1C", "note": "(some centres unmarked) [Example 162, 5-[(2-methylpropyl)amino]-N-[(4s)-6-({6-carbamoyl-2,3-dimethylthieno[3,2-b]pyridin-5-yl}oxy)spiro[3.3]heptan-2-yl]-1,3,4-thiadiazole-2-carboxamide]", "values": [{"measurement": "IC50", "setting": "ROCK2", "result": 162, "unit": "nM"}]}
{"smiles": "C[C@@H](N)[C@H]1CC[C@H](C(=O)Nc2ccncc2)CC1", "note": "[Example Y-27632, Y-27632]", "values": [{"measurement": "blood pressure", "setting": "[1]; control rats", "result": "only a minor effect on blood pressure"}, {"measurement": "blood pressure", "setting": "[1]; three rat models of hypertension", "result": "significantly decrease blood pressure"}, {"measurement": "neointimal formation", "setting": "[2]", "result": "inhibited neointimal formation"}, {"measurement": "ventricular hypertrophy, fibrosis and function", "setting": "Dahl salt-sensitive rats", "result": "improve ventricular hypertrophy, fibrosis and function"}]}
{"smiles": "O=S(=O)(c1cccc2cnccc12)N1CCCNCC1", "note": "[fasudil]", "values": [{"measurement": "coronary constrictive remodeling", "setting": "[3]", "result": "promote a regression of coronary constrictive remodeling"}, {"measurement": "coronary stenosis", "setting": "[3]", "result": "progressively reduce coronary stenosis"}, {"measurement": "infarct size and neurologic deficit", "setting": "rat stroke model", "result": "reduce both the infarct size and neurologic deficit"}]}
